# In US9526254B2, “Pesticide and repellant” (ECOSPRAY LIMITED, priority 2005, dated 2016):
# Tested on: cabbage root fly
# Assay: Swede field trials in Norway, cabbage root fly damage (four sites)
# Assay type: in vivo
# Experimental: An extensive program of non-public field trials, which included five crops of swede were carried out. The field trials design was based around multiple applications of either ECOguard® liquid (garlic juice concentrate) or granules (wood flour granules impregnated with the garlic juice concentrate) and in four out of the five swede trials was referenced against Dimethoate as a standard.
compound,measurement,setting,value
CNC(=O)CSP(=S)(OC)OC [Dimethoate],"Combined root damage index (RDI), % Change",in vivo,−5.8%
same,"Combined root damage index (RDI), Ga-Fa",in vivo,65.78
same,"Combined root damage index (RDI), Mid-Troms",in vivo,40.60
same,"Combined root damage index (RDI), Sor Ost",in vivo,24.92
same,"Combined root damage index (RDI), Toten",in vivo,44.33
same,"Difference of Means (trt 1 control subtracted from trt), cabbage root fly damage",in vivo,−0.3100
same,"cabbage root fly damage, statistical analysis",in vivo,significantly reduced damage
same,"mean saleable yield (cat 1 + 2), % Change",mean of four sites versus control,+8%
